Marks after values point to notes of the source that are not given here.
Assays:
[1] = Expected reduction in risk of ischaemic heart disease and stroke, from analyses of cohort studies and randomised controlled trials; format: in vivo, persons
Description: This combined estimate is based on the fact that the effects on the four different risk factors are unrelated and so the expected effects of changing each one will be independent of each other. This expectation is supported by two classes of evidence. […] For example the ratio of the risk of a disease event in persons with high blood pressure and the risk in persons with low blood pressure is similar, irrespective of the values of serum cholesterol and other risk factors. Second, some randomised clinical trials have used combinations of two of the drugs (for example beta blockers and aspirin) in patients with ischaemic heart disease and have shown that the effects are independent (that is, the relative risk in patients who took two drugs (compared with the risk in those who took none) was similar to the relative risk in persons taking one of the drugs multiplied by the relative risk in persons taking the other drug). Accordingly, the effect of the different drugs in combination in Table 3 has been calculated by multiplying the effects of each as shown in footnotes h and j. Table 3 - The constituent drugs in the proposed combined formulation, the cardiovascular risk factors that each alter, the amount by which each factor would be changed, and the resulting expected reduction in risk of ischaemic heart disease and stroke. [table]

[2] = randomised trials; platelet function not measured; cited from earlier work
[3] = Prevalence of adverse effects in randomised placebo controlled trials (treated minus control); format: in vivo, persons; settings: preferred daily dose: Hydrochlorothiazide 12.5 mg, Atenolol 25 mg, Enalapril 5 mg, Aspirin 75 mg; for Prevalence of any adverse effect in randomised trials (treated minus control) / Prevalence of serious adverse effects (those that warranted withdrawal from randomised trial) (treated minus control): Atorvastatin 10 mg, Folic acid 0.8 mg
Description: The dose of each medication has been chosen to maximise the ratio of benefit to hazard. It is recognised that some persons taking a combination of six drugs would develop adverse effects that were unacceptable. The adverse effects attributable to each of the component medications would be made clear to persons taking the combined formulation and alternative formulations omitting one or more of the component ingredients, with orwithout a substitute ingredient, would be available for persons unable to tolerate one component. […]

[4] = Analysis of blood pressure reduction according to dose in 187 randomised placebo controlled trials of thiazide diuretics, beta-blockers and ACE inhibitors; format: in vivo, persons; settings: Hydrochlorothiazide 12.5 mg + Atenolol 25 mg + Enalapril 5 mg daily, combined effect, half standard dose
Description: For drugs used to lower blood pressure, the dose of an active principal is below the lower therapeutic dosage for the indication of the active principal. As used herein, the term "therapeutic dosage" is intended to referto the commonly used dose in clinical practice for the treatment of high levels of the risk factor or for the treatment of cardiovascular disease by the separate active principal. The most preferred doses for blood pressure lowering agents are half of the doses at the lower end of the therapeutic range recommended in the British National Formulary of March 2000. This is in order to maximise the therapeutic benefit of the combination of agents, while minimising the risks of adverse effects of the individual agents. […] Most preferably, the dose of a blood pressure lowering agent is about half the recommended dose (or, where a range of doses is given, half of the recommended dose at the lower end of the recommended therapeutic range) for the blood pressure lowering agent.
The corresponding reductions in incidence of ischaemic heart disease and stroke are those to be expected from the blood pressure reductions, from published analyses of cohort studies and randomised controlled trials of blood pressure and ischaemic heart disease and stroke (references 1, 5).

[5] = Atorvastatin 10 mg daily; published placebo controlled trials (reference 200); cited from earlier work
[6] = Folic acid 0.8 mg daily; cited from earlier work
[7] = single drug at preferred daily dose: Atorvastatin 10 mg, Aspirin 75 mg (14 trials of 50-100 mg daily), Folic acid 0.8 mg
[8] = Hydrochlorothiazide 12.5 mg + Atenolol 25 mg + Enalapril 5 mg daily combined, expected from blood pressure reduction of 12 mmHg diastolic

Structure (SMILES)	Expected reduction in risk of: ischaemic heart disease [1, 7]	Expected reduction in risk of: stroke [1, 7]	incidence of heart attacks and stroke [2]	Commonest adverse effects [3]	Prevalence of any adverse effect in randomised trials (treated minus control) [3]	Prevalence of serious adverse effects (those that warranted withdrawal from randomised trial) (treated minus control) [3]	Expected reduction in risk of: ischaemic heart disease [1, 8]	Expected reduction in risk of: stroke [1, 8]	Associated physiological variable (reduction produced by drug): Blood pressure, diastolic [4]	Associated physiological variable (reduction produced by drug): Serum cholesterol [5]	Associated physiological variable (reduction produced by drug): Plasma/serum homocysteine [6]
CC(=O)Oc1ccccc1C(=O)O [Aspirin]	38%^e	15%^e	reduces the incidence of heart attacks and stroke in both high risk and low risk persons	bleeding, indigestion	1.8%^b	0.7%^b (mainly rectal or urinary bleeding)					
CC(C)NCC(O)COc1ccc(CC(N)=O)cc1 (stereo not drawn) [Atenolol]				cold extremities, fatigue, dizziness	5.6%^a	0.9%^a	43%^b	63%^b	(12 mmHg diastolic)^a		
CC(C)c1c(C(=O)Nc2ccccc2)c(-c2ccccc2)c(-c2ccc(F)cc2)n1CC[C@@H](O)C[C@@H](O)CC(=O)O [Atorvastatin]	61 %^d	50%^d			0.1%	<0.1%				Serum cholesterol (1.8 mmol/I)°	
CCOC(=O)[C@H](CCc1ccccc1)N[C@@H](C)C(=O)N1CCC[C@H]1C(=O)O [Enalapril]				cough	2.1%^a	0.2%^a	43%^b	63%^b	(12 mmHg diastolic)^a		
Nc1nc2ncc(CNc3ccc(C(=O)N[C@@H](CCC(=O)O)C(=O)O)cc3)nc2c(=O)[nH]1 [Folic acid]	15%^g				<0.1%	<0.1%					Plasma/serum homocysteine (3 µmol/I)^f
NS(=O)(=O)c1cc2c(cc1Cl)NCNS2(=O)=O [Hydrochlorothiazide]				dizziness, impotence, nausea	1.4%^a	0.1%^a	43%^b	63%^b	(12 mmHg diastolic)^a		

From patent EP1272220B2, “FORMULATION FOR THE PREVENTION OF CARDIOVASCULAR DISEASE” (Wald, Nicholas John, priority 2000, dated 2001)
